Data: patent publication US6869957B1, “Non-peptide tachykinin receptor antagonists” (Eli Lilly and Company, priority 1993, dated 2005)

Tests used:
human NK-2 receptor = target: T1, human NK-2 receptor (Homo sapiens, UniProt P21452); assay: NK-2 Receptor Binding Assay ([125I]iodohistidyl-neurokinin A, CHO-hNK-2R membranes); conditions: for IC50: inhibits fifty percent of binding of [125I]iodohistidyl-neurokinin A to CHO-hNK-2R membranes
T1 construct: expressed in transfected cells; host or cells: CHO-hNK-2R cells (CHO-derived), membrane preparation
T1 sequence (P21452 1-398): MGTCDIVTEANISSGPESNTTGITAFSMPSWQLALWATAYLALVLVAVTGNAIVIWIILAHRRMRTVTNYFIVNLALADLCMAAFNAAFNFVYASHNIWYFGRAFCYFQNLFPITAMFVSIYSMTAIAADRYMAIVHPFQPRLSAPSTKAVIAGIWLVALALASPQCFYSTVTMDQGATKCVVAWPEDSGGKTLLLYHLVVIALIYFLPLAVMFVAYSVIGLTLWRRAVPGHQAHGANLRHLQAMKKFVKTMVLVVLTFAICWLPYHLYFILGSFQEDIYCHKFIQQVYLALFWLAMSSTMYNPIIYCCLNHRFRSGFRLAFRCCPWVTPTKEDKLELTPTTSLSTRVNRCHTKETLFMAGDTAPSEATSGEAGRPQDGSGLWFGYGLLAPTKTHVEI
Description: The biological activity of the compounds of the present invention was evaluated employing an initial screening assay which rapidly and accurately measured the binding of the tested compound to known NK-1 and NK-2 receptor sites. Assays useful for evaluating tachykinin receptor antagonists are well known in the art. See. e.g., J. Jukic, et al., Life Sciences, 49:1463-1469 (1991); N. Kucharczyk, et al., Journal of Medicinal Chemistry, 36:1654-1661 (1993); N. Rouissi, et al., Biochemical and Biophysical Research Communications, 176:894-901 (1991).
NK-2 Receptor Binding Assay
The CHO-hNK-2R cells, a CHO-derived cell line transformed with the human NK-2 receptor, expressing about 400,000 such receptors per cell, were grown in 75 cm^2 flasks or roller bottles in minimal essential medium (alpha modification) with 10% fetal bovine serum. The gene sequence of the human NK-2 receptor is given in N. P. Gerard, et al., Journal of Biological Chemistry, 265:20455-20462 (1990).
For preparation of membranes, 30 confluent roller bottle cultures were dissociated by washing each roller bottle with 10 ml of Dulbecco's phosphate buffered saline (PBS) without calcium and magnesium, followed by addition of 10 ml of enzyme-free cell dissociation solution (PBS-based, from Specialty Media, Inc.). After an additional 15 minutes, the dissociated cells were pooled and centrifuged at 1,000 RPM for 10 minutes in a clinical centrifuge. Membranes were prepared by homogenization of the cell pellets in 300 ml 50 mM Tris buffer, pH 7.4 with a Tekma® homogenizer for 10-15 seconds, followed by centrifugation at 12,000 RPM (20,000×g) for 30 minutes using a Beckman JA-14® rotor. The pellets were washed once using the above procedure. and the final pellets were resuspended in 100-120 ml 50 mM Tris buffer, pH 7.4, and 4 ml aliquots stored frozen at −70° C. The protein concentration of this preparation was 2 mg/ml.
For the receptor binding assay, one 4-ml aliquot of the CHO-hNK-2R membrane preparation was suspended in 40 ml of assay buffer containing 50 mM Tris, pH 7.4, 3 mM manganese chloride, 0.02% bovine serum albumin (BSA) and 4 μg/ml chymostatin. A 200 μl volume of the homogenate (40 μg protein) was used per sample. The radioactive ligand was [^125I]iodohistidyl-neurokinin A (New England Nuclear, NEX-252), 2200 Ci/mmol. The ligand was prepared in assay buffer at 20 nCi per 100 μl; the final concentration in the assay was 20 pM. Non-specific binding was determined using 1 μM eledoisin. Ten concentrations of eledoisin from 0.1 to 1000 nM were used for a standard concentration-response curve.
All samples and standards were added to the incubation in 10 μl dimethylsulfoxide (DMSO) for screening (single dose) or in 5 μl DMSO for IC50 determinations. The order of additions for incubation was 190 or 195 μl assay buffer, 200 μl homogenate, 10 or 5 μl sample in DMSO, 100 μl radioactive ligand. The samples were incubated 1 hr at room temperature and then filtered on a 48 well Brandel cell harvester through GF/B filters which had been presoaked for two hours in 50 mM Tris buffer, pH 7.7, containing 0.5% BSA. The filter was washed 3 times with approximately 3 ml of cold 50 mm Tris buffer, pH 7.7. The filter circles were then punched into 12×75 mm polystyrene tubes and counted in a gamma counter.

NK-1 receptor = target: T2, NK-1 receptor (Homo sapiens, UniProt P25103); assay: NK-1 Receptor Binding Assay (125I-labeled substance P, IM9 cells); conditions: for IC50: inhibits fifty percent of binding of 125I-substance P to IM9 cells
T2 construct: endogenous in cells; host or cells: IM9 cells (human cell line), whole cells
T2 sequence (P25103 whole entry): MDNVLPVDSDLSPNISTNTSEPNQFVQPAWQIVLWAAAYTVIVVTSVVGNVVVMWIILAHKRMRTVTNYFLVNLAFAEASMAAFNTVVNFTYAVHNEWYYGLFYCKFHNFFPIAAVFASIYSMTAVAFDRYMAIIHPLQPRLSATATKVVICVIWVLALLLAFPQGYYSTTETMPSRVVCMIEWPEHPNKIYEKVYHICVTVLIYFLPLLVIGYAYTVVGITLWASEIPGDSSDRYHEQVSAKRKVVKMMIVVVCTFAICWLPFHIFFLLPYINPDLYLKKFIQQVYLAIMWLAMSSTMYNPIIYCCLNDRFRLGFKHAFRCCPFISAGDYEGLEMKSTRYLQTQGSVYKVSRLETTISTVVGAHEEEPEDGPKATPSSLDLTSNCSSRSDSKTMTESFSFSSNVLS
Description: The biological activity of the compounds of the present invention was evaluated employing an initial screening assay which rapidly and accurately measured the binding of the tested compound to known NK-1 and NK-2 receptor sites. Assays useful for evaluating tachykinin receptor antagonists are well known in the art.
NK-1 Receptor Binding Assay
Radioreceptor binding assays were performed using a derivative of a previously published protocol.
The IM9 cell line is a well-characterized and readily available human cell line.
The reaction was terminated by filtration through a glass fiber filter harvesting system using filters previously soaked for 20 minutes in 0.1% polyethylenimine. Specific binding of labeled substance P was determined in the presence of 20 nM unlabeled ligand.

IC50 (human NK-2 receptor) [µM]	IC50 (NK-1 receptor) [µM]	NK-1 percent inhibition of binding (NK-1 receptor; @ 5 μM) [% @]	NK-2 percent inhibition of binding (human NK-2 receptor; @ 10 μM) [% @]	Compound
2.7	0.22	–	–	COc1ccccc1CNCC(CC1CNc2ccccc21)NC(=O)CN1CCN(c2ccccc2)CC1 (mixture of isomers) [Example 137]
1.2	0.052	–	–	COc1ccccc1CN(CC(CC1CNc2ccccc21)NC(=O)CN1CCN(c2ccccc2)CC1)C(C)=O (mixture of isomers) [Example 144]
1.9	0.076	–	–	COc1ccccc1CN(CC(CC1CN(C(C)=O)c2ccccc21)NC(=O)CN1CCN(c2ccccc2)CC1)C(C)=O (mixture of isomers) [Example 145]
1.6	–	–	–	COc1ccccc1CN(CC(Cc1c[nH]c2ccccc12)NC(=O)CN1CCN(c2ccccc2)CC1)C(C)=O (racemic) [Example 17]
1.8	0.00025	–	–	CC(=O)N(Cc1ccccc1Cl)CC(Cc1c[nH]c2ccccc12)NC(=O)CN1CCC(N2CCCCC2)CC1 (racemic) [Example 47]
3.4	–	–	–	COc1ccccc1CN(CC(Cc1c[nH]c2ccccc12)NC(=O)CN1CCC(N2CCCCC2)CC1)C(C)=O (racemic) [Example 50]
1.2	0.17	–	–	COc1ccccc1CN(CC(Cc1c[nH]c2ccccc12)NC(=O)CCc1ccccc1)C(C)=O (racemic) [Example 89]
1	0.0096	–	–	COc1ccccc1CN(CC(Cc1c[nH]c2ccccc12)NC(=O)CCC(=O)c1ccccc1)C(C)=O (racemic) [Example 95]
1.7	0.053	–	–	O=C(CN1CCN(c2ccccc2)CC1)NC(CNCc1ccccc1)Cc1c[nH]c2ccccc12 (stereo not drawn) [Example 1]
0.64	0.084	–	–	CCN(Cc1ccccc1OC)CC(Cc1c[nH]c2ccccc12)NC(=O)CN1CCN(c2ccccc2)CC1 (stereo not drawn) [Example 9]
0.82	0.019	–	–	COC(=O)CN(Cc1ccccc1OC)CC(Cc1c[nH]c2ccccc12)NC(=O)CN1CCN(c2ccccc2)CC1 (stereo not drawn) [Example 10]
2.4	0.065	–	–	COc1ccccc1CN(CC(=O)O)CC(Cc1c[nH]c2ccccc12)NC(=O)CN1CCN(c2ccccc2)CC1 (stereo not drawn) [Example 11]
1.6	0.0016	–	–	CC(=O)N(Cc1ccccc1)CC(Cc1c[nH]c2ccccc12)NC(=O)CN1CCN(c2ccccc2)CC1 (stereo not drawn) [Example 12]
1	0.0031	–	–	CC(=O)N(Cc1ccccc1C)CC(Cc1c[nH]c2ccccc12)NC(=O)CN1CCN(c2ccccc2)CC1 (stereo not drawn) [Example 14]
1.2	0.0042	–	–	CC(=O)N(Cc1ccccc1[N+](=O)[O-])CC(Cc1c[nH]c2ccccc12)NC(=O)CN1CCN(c2ccccc2)CC1 (stereo not drawn) [Example 16]
0.87	0.006	–	–	CC(=O)N(Cc1cccc(F)c1)CC(Cc1c[nH]c2ccccc12)NC(=O)CN1CCN(c2ccccc2)CC1 (stereo not drawn) [Example 20]
1.2	0.0046	–	–	COc1cccc(CN(CC(Cc2c[nH]c3ccccc23)NC(=O)CN2CCN(c3ccccc3)CC2)C(C)=O)c1 (stereo not drawn) [Example 21]
3.3	0.0021	–	–	COc1ccc(CN(CC(Cc2c[nH]c3ccccc23)NC(=O)CN2CCN(c3ccccc3)CC2)C(C)=O)cc1 (stereo not drawn) [Example 22]

IC50 (human NK-2 receptor) [µM]	IC50 (NK-1 receptor) [µM]	NK-1 percent inhibition of binding (NK-1 receptor; @ 5 μM) [% @]	NK-2 percent inhibition of binding (human NK-2 receptor; @ 10 μM) [% @]	Compound
0.81	0.013	–	–	CSc1ccc(CN(CC(Cc2c[nH]c3ccccc23)NC(=O)CN2CCN(c3ccccc3)CC2)C(C)=O)cc1 (stereo not drawn) [Example 23]
0.64	0.0012	–	–	COc1ccccc1CN(C=O)CC(Cc1c[nH]c2ccccc12)NC(=O)CN1CCN(c2ccccc2)CC1 (stereo not drawn) [Example 24]
0.65	0.00075	–	–	CCC(=O)N(Cc1ccccc1OC)CC(Cc1c[nH]c2ccccc12)NC(=O)CN1CCN(c2ccccc2)CC1 (stereo not drawn) [Example 26]
0.71	0.0016	–	–	COc1ccccc1CN(CC(Cc1c[nH]c2ccccc12)NC(=O)CN1CCN(c2ccccc2)CC1)C(=O)c1ccccc1 (stereo not drawn) [Example 27]
1	0.0017	–	–	CCOC(=O)N(Cc1ccccc1OC)CC(Cc1c[nH]c2ccccc12)NC(=O)CN1CCN(c2ccccc2)CC1 (stereo not drawn) [Example 28, 1-[N-ethoxycarbonyl-N-(2-methoxybenzyl)amino]-3-(1H-indol-3-yl)-2-[N-(2-((4-phenyl)piperazin-1-yl)acetyl)amino]propane]
1.5	0.0015	–	–	CNC(=O)N(Cc1ccccc1OC)CC(Cc1c[nH]c2ccccc12)NC(=O)CN1CCN(c2ccccc2)CC1 (stereo not drawn) [Example 29, 3-(1H-indol-3-yl)-1-[N-(2-methoxybenzyl)-N-(methylaminocarbonyl)amino]-2-[N-(2-((4-phenyl)piperazin-1-yl)acetyl)amino]propane]
0.68	0.001	–	–	COC(=O)CC(=O)N(Cc1ccccc1OC)CC(Cc1c[nH]c2ccccc12)NC(=O)CN1CCN(c2ccccc2)CC1 (stereo not drawn) [Example 30]
6.2	0.0092	–	–	COc1ccccc1CN(CC(Cc1c[nH]c2ccccc12)NC(=O)CN1CCN(c2ccccc2)CC1)C(=O)CC(=O)O (stereo not drawn) [Example 31]
1.1	0.00098	–	–	COc1ccccc1CN(CC(Cc1c[nH]c2ccccc12)NC(=O)CN1CCN(c2ccccc2)CC1)C(=O)COC(C)=O (stereo not drawn) [Example 32]
0.67	0.0019	–	–	COc1ccccc1CN(CC(Cc1c[nH]c2ccccc12)NC(=O)CN1CCN(c2ccccc2)CC1)C(=O)CO (stereo not drawn) [Example 33]
0.59	0.0062	–	–	COc1ccccc1CN(CC(Cc1c[nH]c2ccccc12)NC(=O)CN1CCN(c2ccccc2)CC1)C(=O)CN (stereo not drawn) [Example 34]
0.6	0.00089	–	–	COc1ccccc1CN(CC(Cc1c[nH]c2ccccc12)NC(=O)CN1CCN(c2ccccc2)CC1)C(=O)CN(C)C (stereo not drawn) [Example 35]
0.12	0.01	–	–	COc1ccccc1CN(CC(Cc1c[nH]c2ccccc12)NC(=O)CN1CCN(c2ccccc2)CC1)C(=O)CNC(=O)OC(C)(C)C (stereo not drawn) [Example 36]
0.6	0.0042	–	–	COc1ccccc1CN(CC(Cc1c[nH]c2ccccc12)NC(=O)CN1CCN(c2ccccc2)CC1)S(C)(=O)=O (stereo not drawn) [Example 37]
8	–	30	–	CC(=O)N(C)CC(Cc1c[nH]c2ccccc12)NC(=O)CN1CCN(c2ccccc2)CC1 (stereo not drawn) [Example 38]
0.91	0.0213	–	–	CCCCCCN(CC(Cc1c[nH]c2ccccc12)NC(=O)CN1CCN(c2ccccc2)CC1)C(C)=O (stereo not drawn) [Example 40]
–	–	–	44	O=C(NCC(Cc1ccccc1)NC(=O)c1ccccc1)c1ccccc1 (stereo not drawn) [Example 163]

Compound	IC50 (human NK-2 receptor) [µM]	IC50 (NK-1 receptor) [µM]	NK-1 percent inhibition of binding (NK-1 receptor; @ 5 μM) [% @]	NK-2 percent inhibition of binding (human NK-2 receptor; @ 10 μM) [% @]
COc1ccccc1CNCC(Cc1c[nH]c2ccccc12)NC(=O)CN1CCN(c2ccccc2)CC1 (stereo not drawn) [Example 4]	1.5	0.04	–	–
